For 31 molecules, TGI and GI50 results are on record in PubChem BioAssay (NCI).

Several values for one entry are separate records, joined by “and”; a condition that tells them apart may be missing. Equal entries are not always repeated.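 Following 48 hours of exposure in 96-well plates, responses at five concentrations were used to interpolate endpoints linearly. At the GI50, growth is halved. TGI: total growth inhibition.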

One test has as its system KM12 colon. The experiment in a line: NCI tumour cell line growth inhibition, 48 h.
The molecule `COc1cc2ccc3c4cc(OC)c(OC(C)C)cc4cnc3c2cc1OC` came in with a TGI of more than 100 µM.
In the case of `CN1NC(=Nc2ccccc2)Sc2c1cnn(-c1ccccc1)c2=O`, the TGI was more than 100 µM.
With `C1C[OH+]CCNCC[OH+]CC[OH+]CCN1.[Cl-].[Pt+4]`, the GI50 was more than 100 µM and the TGI was more than 100 µM.
With `CC(=O)c1sc(-c2nc(C)c(C(=O)/C=C\c3ccc(/C=C\C(=O)c4sc(-c5nc(C)c(C(C)=O)s5)nc4C)cc3)s2)nc1C`, the TGI was more than 100 µM.
On the same count and under the same terms, the same measure for `COC(=O)/C(C)=C/[N+](=O)[O-]`: 32.9 µM; for `Cc1ccc(C2(O)CC(c3ccc([N+](=O)[O-])o3)=NN2C(=O)COc2ccc(Cl)cc2)cc1` (configuration not stated): 31.4 µM; for `CC1=NN(C(=O)CC(=O)N(C(=O)c2ccccc2Cl)c2ccc(C)cc2)C(=O)C1N=Nc1ccc([N+](=O)[O-])cc1` (configuration not stated): more than 100 µM.
The same measure, in the same setting: the same measure for `COc1cccc(-n2c3nc(=O)n(C)c(=O)c-3nc3ccccc32)c1`: more than 100 µM; for `CC(C)(C=O)CC(C#N)/C(=N\NC(N)=O)C(=O)Nc1ccccc1C(N)=O` (configuration not stated): more than 100 µM; for `Cc1cc(C)c(C2[C@H]3C(=O)N(c4ccc(Cc5ccc(N6C(=O)[C@@H]7ON(c8ccccc8)C(c8c(C)cc(C)cc8C)[C@@H]7C6=O)cc5)cc4)C(=O)[C@H]3ON2c2ccccc2)c(C)c1` (some centres not stated): more than 100 µM.
The same measure, in the same setting: the same measure for `COC(=O)OCC1OC(N2C(=O)NC(=O)C(Br)C2N=[N+]=[N-])CC1OC(=O)OC` (configuration not stated): more than 100 µM.
On to `CC12CCCCC1(C)C2Sc1ccccc1` (configuration not stated), for which the TGI was more than 100 µM.
Molecule `CCCCOC(=O)NC(=O)c1cn(CCCOC(=O)NCCCCCCNC(=O)OCCCn2cc(C(=O)NC(=O)OCCCC)c(=O)[nH]c2=O)c(=O)[nH]c1=O` had a TGI of more than 100 µM.
As to `C[C@@]12CCCc3coc(c31)C(=O)c1cc3c(cc12)C(=O)C=CC3=O`, the GI50 was more than 1 µM; the TGI was > 1 µM and 41.8 µM.
With `COc1cc(C)c2c(c1C)OC(=O)c1c(C)c(Cl)c(O)c(C=O)c1O2`, the TGI stood at 35.1 µM.
`C=CCNC(=O)N(CCC)CCCCC(NC(C)=O)C(=O)NCc1ccccc1` (configuration not stated) gave a TGI of more than 100 µM.
The same measure, in the same setting: then `COC(=O)/C(C=O)=C/Sc1ccccc1`, with more than 100 µM.
For the molecule `Nc1ccn(C2(CO)C=C(CO)C(O)C2O)c(=O)n1` (configuration not stated), the TGI is more than 25.8 µM.
Take `C=C1C[C@]23CCC4C(C)(C)C(=O)CC[C@]4(C)C2C[C@H]1C(O)C3=O` (some centres not stated): the TGI is more than 75 µM.
Still for that read-out and setting: then `CC1(C)O/C(=C\c2ccccc2)C(=O)/C(=C/c2ccccc2)O1`, with more than 100 µM; and `O=C1CC2C(=O)N(Cc3ccccc3)C1C=C2S(=O)(=O)c1ccccc1` (configuration not stated), with more than 100 µM.
Take `N.N.N.N.[Cl-].[Co+3].[N-]=[N+]=[N-].[N-]=[N+]=[N-]`: the GI50 was more than 100 µM and the TGI is more than 100 µM.
Regarding `O=c1[nH]c2cc(Cl)ccc2nc1/C(=N\O)C(O)c1ccc(Cl)cc1Cl` (configuration not stated), the TGI is more than 100 µM.
On the same count and under the same terms, then `CC(C)CCCC(C)[C@H]1CCC2[C@H]3C(CC[C@@]21C)[C@@]1(C)CCC=C[C@]12C[C@@H]2[C@@H]3O` (some centres not stated), with more than 100 µM; and `O=C(Nc1cc(Cl)ccc1Cl)C(=O)C(c1cnc2ccccc2n1)[N+](=O)[O-]` (configuration not stated), with more than 100 µM; and `COC(=O)CCC(=O)CC1CC(=O)C2CCCN12` (configuration not stated), with more than 100 µM.
On the same count and under the same terms, then `Cc1cc(NS(=O)(=O)c2ccc(Nc3c4ccccc4nc4c(C(=O)NCCN(C)C)cccc34)cc2)no1`, with more than 100 µM.
On the same count and under the same terms, the same measure for `Nc1nc(CCl)nc(Nc2ccccc2)n1`: 30.1 µM.
In turn, `CN[C@@H](C)[C@H](NC)c1ccccc1` displayed a TGI of more than 100 µM.
The same measure, in the same setting: the same measure for `O=S1OC2(c3ccccc3-c3ccccc32)c2ccccc21` (configuration not stated): more than 100 µM.
On the same count and under the same terms, then `CCOC(=N)CC(=O)Nc1cccc(C)c1C`, with more than 100 µM.

The test system of another test is OVCAR-5 ovarian. The experiment in a line: NCI tumour cell line growth inhibition, 48 h.
Molecule `COc1cc2ccc3c4cc(OC)c(OC(C)C)cc4cnc3c2cc1OC` yielded a TGI of more than 100 µM.
On to `CC(=O)c1sc(-c2nc(C)c(C(=O)/C=C\c3ccc(/C=C\C(=O)c4sc(-c5nc(C)c(C(C)=O)s5)nc4C)cc3)s2)nc1C`, for which the TGI was more than 100 µM.
The same measure, in the same setting: the same measure for `COC(=O)/C(C)=C/[N+](=O)[O-]`: 35.4 µM.
Still for that read-out and setting: then `Cc1ccc(C2(O)CC(c3ccc([N+](=O)[O-])o3)=NN2C(=O)COc2ccc(Cl)cc2)cc1` (configuration not stated), with more than 94.9 µM; and `CC1=NN(C(=O)CC(=O)N(C(=O)c2ccccc2Cl)c2ccc(C)cc2)C(=O)C1N=Nc1ccc([N+](=O)[O-])cc1` (configuration not stated), with more than 100 µM.
On the same count and under the same terms, the same measure for `COc1cccc(-n2c3nc(=O)n(C)c(=O)c-3nc3ccccc32)c1`: 37.2 µM; for `CC(C)(C=O)CC(C#N)/C(=N\NC(N)=O)C(=O)Nc1ccccc1C(N)=O` (configuration not stated): more than 100 µM; for `Cc1cc(C)c(C2[C@H]3C(=O)N(c4ccc(Cc5ccc(N6C(=O)[C@@H]7ON(c8ccccc8)C(c8c(C)cc(C)cc8C)[C@@H]7C6=O)cc5)cc4)C(=O)[C@H]3ON2c2ccccc2)c(C)c1` (some centres not stated): more than 100 µM.
The molecule `COC(=O)OCC1OC(N2C(=O)NC(=O)C(Br)C2N=[N+]=[N-])CC1OC(=O)OC` (configuration not stated) showed a TGI of more than 100 µM.
Still for that read-out and setting: the same measure for `CC12CCCCC1(C)C2Sc1ccccc1` (configuration not stated): more than 100 µM; for `CCCCOC(=O)NC(=O)c1cn(CCCOC(=O)NCCCCCCNC(=O)OCCCn2cc(C(=O)NC(=O)OCCCC)c(=O)[nH]c2=O)c(=O)[nH]c1=O`: more than 100 µM.
Regarding `C[C@@]12CCCc3coc(c31)C(=O)c1cc3c(cc12)C(=O)C=CC3=O`, the GI50 is more than 1 µM; the TGI is > 1 µM and 36.4 µM.
Turning to `COc1cc(C)c2c(c1C)OC(=O)c1c(C)c(Cl)c(O)c(C=O)c1O2`, the TGI is 81.8 µM.
The same measure, in the same setting: the same measure for `C=CCNC(=O)N(CCC)CCCCC(NC(C)=O)C(=O)NCc1ccccc1` (configuration not stated): more than 100 µM.
The same measure, in the same setting: the same measure for `COC(=O)/C(C=O)=C/Sc1ccccc1`: 93.8 µM; for `CC1(C)O/C(=C\c2ccccc2)C(=O)/C(=C/c2ccccc2)O1`: 60.8 µM.
In the case of `N.N.N.N.[Cl-].[Co+3].[N-]=[N+]=[N-].[N-]=[N+]=[N-]`, the GI50 is more than 100 µM and the TGI is more than 100 µM.
In turn, `O=c1[nH]c2cc(Cl)ccc2nc1/C(=N\O)C(O)c1ccc(Cl)cc1Cl` (configuration not stated) yielded a TGI of more than 100 µM.
With `CC(C)CCCC(C)[C@H]1CCC2[C@H]3C(CC[C@@]21C)[C@@]1(C)CCC=C[C@]12C[C@@H]2[C@@H]3O` (some centres not stated), the TGI is more than 100 µM.
On the same count and under the same terms, then `O=C(Nc1cc(Cl)ccc1Cl)C(=O)C(c1cnc2ccccc2n1)[N+](=O)[O-]` (configuration not stated), with more than 100 µM; and `COC(=O)CCC(=O)CC1CC(=O)C2CCCN12` (configuration not stated), with more than 100 µM; and `Cc1cc(NS(=O)(=O)c2ccc(Nc3c4ccccc4nc4c(C(=O)NCCN(C)C)cccc34)cc2)no1`, with more than 100 µM.
The same measure, in the same setting: the same measure for `Nc1nc(CCl)nc(Nc2ccccc2)n1`: 43.4 µM; for `O=S1OC2(c3ccccc3-c3ccccc32)c2ccccc21` (configuration not stated): more than 100 µM; for `CCOC(=N)CC(=O)Nc1cccc(C)c1C`: more than 100 µM.

In a further test the test system is OVCAR-3 ovarian. In words: NCI tumour cell line growth inhibition, 48 h.
For `COc1cc2ccc3c4cc(OC)c(OC(C)C)cc4cnc3c2cc1OC`, the TGI was more than 100 µM.
